The text below walks through data of patent US9950071B2, “Hybrid anticancer prodrug simultaneously producing cinnamaldehyde and quinone methide and method for preparing same” (INDUSTRIAL COOPERATION FOUNDATION CHONBUK NATIONAL …, priority 2014, dated 2018).

For data set [1], the system named is xenograft mouse model of DU145 and SW620. The data set can be described thus: growth and size of tumor in xenograft model. Particulars: for growth inhibition effect of the tumor / size of the tumor: 2 mg/kg through tail vein every 3 days. In kind it is in vivo. As to the method: In order to verify in vivo anticancer activity of the QCA, a tumor in a xenograft model was observed. First, cancer cells were injected to a side hypodermic tissue of mouse by using a xenograft mouse model of DU145 and SW620 and when the tumor after cell transplantation started to be touched small, cinnamaldehyde, Q1, and cinnamaldehyde and Q1, or QCA was administrated by 2 mg/kg though tail vein every 3 days, and then the size of the tumor in the mouse was measured and the result thereof was illustrated in FIG. 17. Further, different amounts of QCA were administrated to the mouse having the tumor and in order to compare the effect thereof, 2 mg/kg of camptotethin (CPT) as an anticancer agent which was commercialized was administrated in other mouse, and then the size of the tumor of the mouse was measured and the result thereof was illustrated in FIG. 18.

For data set [2], the system named is DU145, SW620 and NIH3T3 cells. Put plainly: cytotoxicity by MTT assay. In kind it is cell-based. Particulars: 24 hr treatment, various amounts. As for the experimental part:
The cytotoxities of the QCA prepared in Example 1 and the QBCA prepared in Example 2 were measured by an MTT assay. In detail, a prostate cancer cell line DU145, a colorectal cancer cell line SW620, and a fibroblast cell NIH3T3 were inoculated in a 24-well plate with the density of 1×10^5 cells/well, respectively, and cultured for 24 hr to reach up to 90% confluency. The cells were treated with various amounts of QCA, QBCA, Q1, or cinnamaldehyde and cultured for 24 hr. 100 μL of the MTT solution was put each well and the cells were cultured for 4 hr. The generated formazan crystals were dissolved in 200 μL of dimethylsulfoxide. After 10 min of the culture, an absorbance at 570 nm was measured by using a micro plate reader (Biotek Instruments, Winooski, Vt.). A cell survival rate was determined by comparing absorbances of cells in a control group and QCA or QBCA-treated cells, and the results were illustrated in FIGS. 9 and 10.
For orientation: Tetrazolium assays rely on reduction of a dye to a coloured formazan, in cell work by metabolically active cells.

Data set [3] relates to tumor lysate. The data set can be described thus: tumor lysate analysis by LC-MS (generation of QM and cinnamaldehyde). In kind it is in vivo, mouse. As for the experimental part:
In the tumor, in order to verify whether to generate the QM and the cinnamaldehyde in the tumor, a tumor lysate was analyzed by LC-MS after 22 days and the result thereof was illustrated in FIG. 19.

The nature of data set [4]: toxicity of QCA: ALT evaluation and H&E staining of liver and heart. In kind it is in vivo. The settings on record: 2 mg/kg, 10 days, once per 2 days. As for the experimental part: In order to verify the stability of the QCA, after 2 mg/kg of the QCA was injected to the mouse for 10 days once per 2 days, alanine transaminase (ALT) evaluation and H&E staining of the liver and heart tissues were performed, and the result thereof was illustrated in FIGS. 24 and 25.

In data set [5] the test system is procaspase-3 and PARP-1 in DU145 cells. The data set can be described thus: immunoblot analysis. The settings on record: DU145, 8 hr, various concentrations. In kind it is cell-based. As for the experimental part: (§1) The prostate cancer cell line DU145 and the colorectal cancer cell line SW620 (1×10^6/well) were treated with cinnamaldehyde or QCA for 8 hr at various concentrations and washed with new PBS twice. Proteins were extracted from the cells by using a lysis buffer solution. Electrophoresis was performed by using […] of a cell lysate in a […] and the proteins were transferred to a PVDF membrane (Millipore, Billerica, Mass.). A blot was cultured together with a PARP monoclonal antibody (Santa Cruz Biotechnology, Dallas, Tex.) or caspase-3 (Santa Cruz Biotechnology, Dallas, Tex.) and a HRP-coupled anti-goat antibody (Millipore, Billerica, Mass.) was used as a secondary antibody. An immunoblot signal was verified by using a chemiluminescent reagent (Pierce, Rockford, Ill.) of SuperSignal Ultra and the result thereof was illustrated in FIGS. 11 and 12.
In general terms: Immunoblotting shows a protein as a band on a membrane.

Data set [6] concerns procaspase-3 and PARP-1 in SW620 cells. Put plainly: immunoblot analysis. Particulars: SW620, 8 hr, various concentrations. In kind it is cell-based. As for the experimental part:
as §1

Data set [7] has as its system SW620 cells. The data set can be described thus: flow cytometry with Annexin V-FITC and propidium iodide. In kind it is cell-based. The settings on record: SW620, treated 24 hr, compared with cinnamaldehyde and Q1. As for the experimental part: (§2) Further, in order to support the result of the DNA fragmentation assay, the DU145 and SW620 cells were cultured for 24 hr and treated with cinnamaldehyde, Q1 or QCA for 24 hr and then flow cytometry was performed by using Annexin V-FITC as a marker of apoptosis and propidium iodide (PI) as a marker for […], and the result was illustrated in FIGS. 15 and 16.

Data set [8] deals with DU145 cells. The description is as above. In kind it is cell-based. The settings on record: DU145, treated 24 hr, compared with cinnamaldehyde and Q1. As to the method: as §2
Data set [9] in a line: QCA structure after hydrolysis in tumor environment (1H NMR). In kind it is physicochemical. As for the experimental part: In a tumor environment, in order to verify a structure of the QCA triggered by double stimulus, the QCA was cultured for 24 hr at pH 5.5 and verified through ^1H NMR and the structure of the QCA was illustrated in FIG. 5.
In data set [10] the test system is colorectal cancer cell line SW620. Put plainly: cell GSH level (Ellman's reagent). In kind it is cell-based. As to the method: (§3) A prostate cancer cell line DU145, a colorectal cancer cell line SW620, and a fibroblast cell NIH3T3 were inoculated in a 6-well plate (5×10^5/well) to reach 80% confluency. The cell lines were treated with various compounds for 1.5 hr at 37° C. and then, cells were obtained and washed with PBS. Thereafter, the cells were lysed in ice in 40 μL of a Triton X-100 lysis buffer solution. After 20 min, the lysate was centrifuged with 9,000 g and 10 μL of a supernatant was mixed with 50 μL of an Ellman's reagent (0.5 mM DTNB). The amount of GSH was quantified by measuring an absorbance at 405 nm using a microplate reader (Biotek Instruments, Winooski, Vt.). In the treated cells, a percentage of the GSH content was compared with the base GSH content measured in untreated cells, and the result was illustrated in FIG. 7.

The subject of data set [11] is prostate cancer cell line DU145. The data set can be described thus: cell GSH level (Ellman's reagent). In kind it is cell-based. As for the experimental part: as §3
For orientation: Ellman's reagent forms a yellow product with free thiols.

Data set [12] relates to fibroblast cell NIH3T3. The data set can be described thus: cell GSH level (Ellman's reagent). In kind it is cell-based. The settings on record: NIH3T3, 1.5 hr at 37° C., compared with untreated cells. As to the method:
as §3

Data set [13] deals with SW620 tumor mouse model. The data set can be described thus: histologic examination of tumor (H&E and TUNEL staining). In kind it is in vivo. The settings on record: 21 days, once per three days. As to the method:
In order to verify the apoptosis induced by the QCA, in a SW620 tumor mouse model, H&E staining of the tumor was performed after administrating cinnamaldehyde, Q1, the cinnamaldehyde and the Q1, or QCA for 21 days once per three days, and the result thereof was illustrated in FIG. 20. Further, terminal deoxynucleotidyl transferase dUTP nick end labeling (TUNEL) staining of the tumor was performed by the same method, and the result thereof was illustrated in FIG. 21.

Data set [14] deals with SW620 cells. The data set can be described thus: DNA fragmentation assay (electrophoresis). In kind it is cell-based. As to the method:
In order to verify an effect of the QCA on the DNA fragments, a DNA fragmentation assay of SW620 was performed. First, the DU145 and SW620 cells were cultured for 24 hr and then treated with 100 μm of cinnamaldehyde, 100 μm of Q1 (4-(1,3,2-dioxaborinan-2-yl)benzyl carbonate, and generating only quinone methide), and 25 μm, 50 μm, 100 μm of the QCA to isolate the DNA and the fragmentation of the nucleosomal DNA was observed by electrophoresis, and the result thereof was illustrated in FIG. 13.
Further, hereinabove, the DNA fragments of the SW620 treated with 100 μm of the QCA were analyzed over time and the result thereof was illustrated in FIG. 14.

The subject of data set [15] is prostate cancer cell line DU145. Put plainly: generation of reactive oxygen species by flow cytometry (DCFH-DA). In kind it is cell-based. Particulars: DU145, treated 12 hr, compared with cinnamaldehyde. As for the experimental part: The prostate cancer cell line DU145 (4×10^5) was inoculated in a 24-well culture plate and cultured for 24 hr, and treated with cinnamaldehyde or QCA for 12 hr. Cells were washed with a new medium twice and resuspended in a 1× binding buffer at a concentration of 1×10^5 cells/mL. 100 μL of the cell suspension was transferred to 5 mL of a culture tube and added with 5 μM of 2′,7′-dichlorofluorescein diacetate (DCFH-DA) and softly mixed. The cells were dark-cultured for 15 min at room temperature and added with 400 μL of the 1× binding buffer. The stained cells were measured by using a flow cytometry (FACS Caliber, Becton Dickinson, San Jose, Calif.) and the result was illustrated in FIG. 8. A total of 1.5×10^4 cells per sample were analyzed.

Data set [16] concerns liver and heart tissues. The data set can be described thus: organ damage, H&E and TUNEL staining of liver and heart tissues. The settings on record: 21 days, once per three days. In kind it is in vivo, mouse.
The conditions of data set [17]: in vivo; cited from earlier work.

Turning to “4-(1,3,2-dioxaborinan-2-yl)benzyl carbonate [Example Q1, reference compound]”, the “growth inhibition effect of the tumor / size of the tumor” value in [1] was “slight”.

Regarding `CC1(COC(=O)OCc2ccc(B3OCCCO3)cc2)COC(/C=C/c2ccccc2OC(=O)c2ccccc2)OC1` (stereo not shown) [QBCA, 4-(1,3,2-dioxaborinan-2-yl)benzyl ((5-methyl-2-(2-benzoyloxyphenyl)vinyl-1,3-dioxan-5-yl)methyl)carbonate], in data set [2], the “cytotoxicity (cell survival rate, MTT)” value is recorded as “increased according to a concentration”.

Turning to `CC1(COC(=O)OCc2ccc(B3OCCCO3)cc2)COC(/C=C/c2ccccc2)OC1` (stereo not shown) [QCA, 4-(1,3,2-dioxaborinan-2-yl)benzyl ((5-methyl-2-styryl-1,3-dioxan-5-yl)methyl)carbonate], the “growth inhibition effect of the tumor / size of the tumor” value in data set [1] was “significantly smaller size of the tumor”. The “anticancer activity (size of the tumor)” value in [1] (QCA 1 mg/kg or less) is given as “a different anticancer activity was not shown”; in data set [1] (QCA 2 mg/kg, compared with 2 mg/kg CPT), “prominent anticancer activity”. For the same compound, in [3] (liver, after 22 days), the “QM and cinnamaldehyde in the liver” value is recorded as “not detected”. Further, the “GSH value in tumor lower than the tumor of the untreated mouse” value in data set [3] (tumor lysate after 22 days) is recorded as “up to 38%”. The “generation of cinnamaldehyde in the tumor” value in [3] (tumor lysate after 22 days, new peak same as cinnamaldehyde treatment) is listed as “cinnamaldehyde was generated”. In addition, in data set [2], the “cytotoxicity (cell survival rate, MTT)” value was “increased according to a concentration”. Besides, in data set [4], the “evidence of toxicity accumulated in the liver and the heart (H&E)” value is “not observed”. The “serum ALT level compared with the untreated mouse” value in data set [4] is “a little difference”. For the same compound, the “expression of PARP-1” value in [5] and in data set [6] was “concentration-dependently reduced” in each case. For the same compound, the “expression of procaspase-3” value in data set [5] and in data set [6] was “concentration-dependently reduced” throughout. Besides, the “apoptosis (Annexin V / PI)” value was “faster apoptosis than the cinnamaldehyde and Q1-treated cells” in data set [7]; “faster apoptosis than the cinnamaldehyde and Q1-treated cells” in data set [8]. The “boronate oxidation and formation of hydroxybenzyl alcohol (1H NMR)” value in data set [9] (H2O2-mediated, peaks 6.9 and 6.4 ppm) was “formation of hydroxybenzyl alcohol and oxidation of H2O2-mediated boronate were verified”. Further, the “release of cinnamaldehyde by acetal bond cleavage (1H NMR)” value in data set [9] (cultured 24 hr at pH 5.5, aldehyde peak 9.4 ppm) is reported as “cinnamaldehyde generated while an acetal bond was broken”. Also, the “GSH level at 50 μM” value in data set [10] (SW620, 50 μM) is recorded as “Most of GSH was depleted”; in data set [11] (DU145, 50 μM), “Most of GSH was depleted”. Besides, the “further reduction of the GSH at 100 μM” value in [10] (SW620, 100 μM) is recorded as “not further observed”; in [11] (DU145, 100 μM), “not further observed”. In addition, the GSH level entry in [10] (SW620, 1.5 hr at 37° C., compared with untreated cells) is reported as “significantly reduced in a dose-dependent manner”; in data set [11] (DU145, 1.5 hr at 37° C., compared with untreated cells) it was “significantly reduced in a dose-dependent manner”; in data set [12] it was “no effect”. Besides, in [13], the “apoptosis in tumor tissue (H&E, TUNEL)” value is listed as “apoptosis of no-nuclear cells was widely shown”. Also, the “amount of the DNA fragments over time” value in [14] (SW620, 100 μm QCA, over time) was “gradually increased in a concentration and time-dependent manner”. Further, the “DNA fragments (nucleosomal DNA ladder)” value in data set [14] (SW620, QCA 25, 50, 100 μm vs 100 μm cinnamaldehyde and 100 μm Q1) is “more DNA fragments than the cinnamaldehyde and the Q1”. In addition, the “apoptosis / cell toxicity by ROS generation (FIG. 8)” value in data set [15] is listed as “much higher cell toxicity than the cinnamaldehyde”. The “organ damage (liver and heart, H&E and TUNEL)” value in data set [16] is listed as “did not induce a particular organ damage”.

For the compound `O=CC=Cc1ccccc1` [cinnamaldehyde], in data set [1], the “growth inhibition effect of the tumor / size of the tumor” value is on record as “slight”. In addition, the “change after culture at neutral pH without H2O2” value in data set [9] (72 hr, neutral pH, without H2O2) is given as “any change was not observed”. Besides, in data set [17], the half-life entry was “less than 1.5 hr”.
